Test results taken from ChEMBL document CHEMBL2086335, “Three new 12-carbamoylated streptothricins from Streptomyces sp. I08A 1776” (2012).
≈ marks a conversion by molar mass, not a printed value.

Tests used:
Assay type in all cases: functional
[1] = test system: Mycolicibacterium smegmatis; test: Antibacterial activity against Mycobacterium smegmatis MC2 155 by microbroth dilution method; conditions: str. MC2 155
Escherichia coli = test: Antibacterial activity against Escherichia coli ATCC 25922 by microbroth dilution method
Staphylococcus aureus = test: Antibacterial activity against Staphylococcus aureus ATCC 25923 by microbroth dilution method
Pseudomonas aeruginosa = test: Antibacterial activity against Pseudomonas aeruginosa ATCC 27853 by microbroth dilution method
Enterococcus faecalis = test: Antibacterial activity against Enterococcus faecalis ATCC 29212 by microbroth dilution method
[2] = test system: Mycobacterium tuberculosis; test: Antibacterial activity against Mycobacterium tuberculosis H37Rv by microbroth dilution method
Candida albicans = test: Antifungal activity against Candida albicans ATCC 10231 by microbroth dilution method
Bacillus subtilis = test: Antibacterial activity against Bacillus subtilis ATCC 6633 by microbroth dilution method
Morganella morganii = test: Antibacterial activity against multidrug-resistant Morganella morganii 07-09 by microbroth dilution method

| Compound | MIC [1] | MIC (Escherichia coli) | MIC (Staphylococcus aureus) | MIC (Pseudomonas aeruginosa) | MIC (Enterococcus faecalis) | MIC [2] | MIC (Candida albicans) | MIC (Bacillus subtilis) | MIC (Morganella morganii) |
| --- | --- | --- | --- | --- | --- | --- | --- | --- | --- |
| CC(=O)N[C@@H](CCCNC(=O)C[C@@H](N)CCCN)CC(=O)N[C@@H]1[C@H](O)[C@@H](O)[C@@H](COC(N)=O)O[C@H]1/N=C1\N[C@@H]2[C@H](O)CNC(=O)[C@H]2N1 | > 256 mg/L | > 256 mg/L | > 256 mg/L | > 256 mg/L | > 256 mg/L | > 256 mg/L | > 256 mg/L | 128 mg/L (≈ 190 µM) | > 256 mg/L |
| NNC(=O)c1ccncc1 [ISONIAZID] | – | – | – | – | – | 0.0625 mg/L (≈ 0.456 µM) | – | – | – |
| CC(=O)N[C@@H](CCCNC(=O)C[C@@H](N)CCCNC(=O)C[C@@H](N)CCCN)CC(=O)N[C@@H]1[C@H](O)[C@@H](O)[C@@H](COC(N)=O)O[C@H]1/N=C1\N[C@@H]2[C@H](O)CNC(=O)[C@H]2N1 | > 256 mg/L | 64 mg/L (≈ 79.9 µM) | > 256 mg/L | > 256 mg/L | > 256 mg/L | > 256 mg/L | > 256 mg/L | 64 mg/L (≈ 79.9 µM) | > 256 mg/L |
| NCCC[C@H](N)CC(=O)NCCC[C@H](N)CC(=O)N[C@@H]1[C@H](O)[C@@H](O)[C@@H](COC(N)=O)O[C@H]1/N=C1\N[C@@H]2[C@H](O)CNC(=O)[C@H]2N1 | 64 mg/L (≈ 101 µM) | > 256 mg/L | > 256 mg/L | > 256 mg/L | > 256 mg/L | 16 mg/L (≈ 25.4 µM) | 32 mg/L (≈ 50.7 µM) | 16 mg/L (≈ 25.4 µM) | > 256 mg/L |
| CC(=O)N[C@@H](CCCNC(=O)C[C@@H](N)CCCNC(=O)C[C@@H](N)CCCN)CC(=O)N[C@@H]1[C@H](O)[C@@H](O)[C@@H](COC(N)=O)O[C@H]1/N=C1\N[C@H]([C@H](O)CN)[C@@H](C(=O)O)N1 | > 256 mg/L | > 256 mg/L | > 256 mg/L | > 256 mg/L | > 256 mg/L | > 256 mg/L | > 256 mg/L | > 256 mg/L | > 256 mg/L |
| CO[C@H]1/C=C/O[C@@]2(C)Oc3c(C)c(O)c4c(O)c(c(/C=N/N5CCN(C)CC5)c(O)c4c3C2=O)NC(=O)/C(C)=C\C=C\[C@H](C)[C@H](O)[C@@H](C)[C@@H](O)[C@@H](C)[C@H](OC(C)=O)[C@@H]1C [RIFAMPIN] | – | – | – | – | – | 0.0625 mg/L (≈ 0.0759 µM) | – | – | – |
| C[C@H]1COc2c(N3CCN(C)CC3)c(F)cc3c(=O)c(C(=O)O)cn1c23.C[C@H]1COc2c(N3CCN(C)CC3)c(F)cc3c(=O)c(C(=O)O)cn1c23.O [LEVOFLOXACIN] | 1 mg/L | – | 0.12 mg/L | 0.25 mg/L | 0.5 mg/L | 0.5 mg/L | > 256 mg/L | 0.12 mg/L | 16 mg/L |
| CC(=O)N[C@@H](CCCNC(=O)C[C@@H](N)CCCNC(=O)C[C@@H](N)CCCN)CC(=O)N[C@@H]1[C@H](O)[C@@H](OC(N)=O)[C@@H](CO)O[C@H]1/N=C1\N[C@H]([C@H](O)CN)[C@@H](C(=O)O)N1 | > 256 mg/L | 64 mg/L (≈ 78.2 µM) | > 256 mg/L | > 256 mg/L | > 256 mg/L | > 256 mg/L | > 256 mg/L | 64 mg/L (≈ 78.2 µM) | > 256 mg/L |
| NCCC[C@H](N)CC(=O)NCCC[C@H](N)CC(=O)N[C@@H]1[C@H](O)[C@@H](OC(N)=O)[C@@H](CO)O[C@H]1NC1=N[C@@H]2C(=O)NC[C@@H](O)[C@H]2N1 [STREPTOTHRICIN E] | 4 mg/L (≈ 6.34 µM) | 16 mg/L (≈ 25.4 µM) | 4 mg/L (≈ 6.34 µM) | 64 mg/L (≈ 101 µM) | 64 mg/L (≈ 101 µM) | 1 mg/L (≈ 1.59 µM) | 1 mg/L (≈ 1.59 µM) | 1 mg/L (≈ 1.59 µM) | 4 mg/L (≈ 6.34 µM) |
